Assay results published in PubChem BioAssay (NCI).
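Each compound was tested at five concentrations against cells in 96-well plates for 48 hours. TGI marks complete inhibition of growth.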

Columns and labels:
Test in all cases: growth of human tumour cells (NCI), 48 h
[1] = tested on: IGROV1 ovarian
[2] = tested on: CAKI-1 renal
[3] = tested on: SR leukemia
[4] = tested on: UACC-62 melanoma
[5] = tested on: HOP-62 NSCLC
[6] = tested on: OVCAR-8 ovarian
[7] = tested on: A549 NSCLC
[8] = tested on: HT29 colon
[9] = tested on: RPMI-8226 leukemia
[10] = tested on: SW-620 colon
[11] = tested on: UACC-257 melanoma
[12] = tested on: M14 melanoma
[13] = tested on: SF-295 CNS
[14] = tested on: ACHN renal
[15] = tested on: EKVX NSCLC
[16] = tested on: T-47D breast
[17] = tested on: SNB-19 CNS
[18] = tested on: HS 578T breast
[19] = tested on: OVCAR-4 ovarian
[20] = tested on: MCF7 breast
[21] = tested on: SF-268 CNS
[22] = tested on: HOP-92 NSCLC
[23] = tested on: BT-549 breast
[24] = tested on: OVCAR-5 ovarian
[25] = tested on: HCT-15 colon
[26] = tested on: SK-MEL-2 melanoma
[27] = tested on: HCT-116 colon
[28] = tested on: NCI-H226 lung
[29] = tested on: SK-MEL-5 melanoma
[30] = tested on: CCRF-CEM leukemia
[31] = tested on: MOLT-4 leukemia
[32] = tested on: OVCAR-3 ovarian
[33] = tested on: NCI-H460 lung
[34] = tested on: TK-10 renal
[35] = tested on: COLO 205 colon
[36] = tested on: MDA-MB-231 breast
[37] = tested on: MDA-N
[38] = tested on: HCC-2998 colon
[39] = tested on: U251 CNS
[40] = tested on: A498 renal
[41] = tested on: SK-OV-3 ovarian
[42] = tested on: MDA-MB-435
[43] = tested on: SNB-75 CNS
[44] = tested on: SK-MEL-28 melanoma
[45] = tested on: 786-0 renal
[46] = tested on: NCI/ADR-RES ovarian
[47] = tested on: PC-3 prostate
[48] = tested on: SN12C renal
[49] = tested on: HL-60(TB) leukemia
[50] = tested on: KM12 colon
[51] = tested on: NCI-H522 lung
[52] = tested on: K-562 leukemia
[53] = tested on: RXF 393 renal
[54] = tested on: DU-145 prostate
[55] = tested on: UO-31 renal
[56] = tested on: LOX IMVI melanoma
[57] = tested on: NCI-H23 lung
[58] = tested on: SF-539 CNS
[59] = tested on: MALME-3M melanoma

Compound: COc1ccc2c3c1OC1C(=O)C=CC4(O)C(C2)NCC[C@@]314 (some centres undefined)
- TGI [1]: 15.1 µM
- TGI [2]: 8.49 µM
- TGI [3]: 35.8 µM
- TGI [4]: 12.7 µM
- TGI [5]: 9.87 µM
- TGI [6]: 6.36 µM
- TGI [7]: 18.2 µM
- TGI [8]: 11.7 µM
- TGI [9]: 13.2 µM
- TGI [10]: 5.81 µM
- TGI [11]: 5.3 µM
- TGI [12]: 6.61 µM
- TGI [13]: 14.9 µM
- TGI [14]: 12.6 µM
- TGI [15]: 7.95 µM
- TGI [16]: 5.69 µM
- TGI [17]: 19.1 µM
- TGI [18]: 6.39 µM
- TGI [19]: 12.9 µM
- TGI [20]: 9.17 µM
- TGI [21]: 7.55 µM
- TGI [22]: 20.5 µM
- TGI [23]: 6.32 µM
- TGI [24]: 8.84 µM
- TGI [25]: 11.3 µM
- TGI [26]: 6.65 µM
- TGI [27]: 6.32 µM
- TGI [28]: 25.7 µM
- TGI [29]: 16.4 µM
- TGI [30]: 2.76 µM
- TGI [31]: 9.13 µM
- TGI [32]: 3.99 µM
- TGI [33]: 13.2 µM
- TGI [34]: 4.99 µM
- TGI [35]: 3.02 µM
- TGI [36]: 9.01 µM
- TGI [37]: 4.91 µM
- TGI [38]: 6.1 µM
- TGI [39]: 7.15 µM
- TGI [40]: 9.39 µM
- TGI [41]: 11.2 µM
- TGI [42]: 5.79 µM
- TGI [43]: 4.32 µM
- TGI [44]: 22.7 µM
- TGI [45]: 5.02 µM
- TGI [46]: 20.3 µM
- TGI [47]: 12.2 µM
- TGI [48]: 4.42 µM
- TGI [49]: 4.4 µM
- TGI [50]: 8.59 µM
- TGI [51]: 1.99 µM
- TGI [52]: > 80.8 µM
- TGI [53]: 3.74 µM
- TGI [54]: 13.1 µM
- TGI [55]: 8.53 µM
- TGI [56]: 5.15 µM
- TGI [57]: 5.64 µM
- TGI [58]: 4.02 µM
- TGI [59]: 2.81 µM
